Experimental findings from PubChem BioAssay AID1996 are described below.

The structures appear in SMILES notation. ≈ marks a conversion by molar mass, not a printed value.

The conditions of the series: buffer; pH 7.4; 200.0 µM.
The solubility (kinetic) is the concentration staying in solution when a stock, usually in DMSO, is diluted into the medium. For the molecule `COCCN(C(=S)Nc1c(C)cccc1C)C(C)c1ccco1` (configuration not stated), the kinetic solubility stood at 47.1 µg/mL (≈ 142 µM).

Consider `CC1(c2ccccc2)NC(=O)N(CC(=O)Nc2ccc(N3CCOCC3)cc2)C1=O` (configuration not stated), for which the kinetic solubility was found to be 27.6 µg/mL (≈ 67.6 µM).

The molecule `N/C(=N\OC(=O)/C=C/c1ccccc1)c1ccncc1` came in with a kinetic solubility of 34.6 µg/mL (≈ 129 µM). To `c1ccc(OCCCn2ccnc2)cc1` belongs 25.1 µg/mL (≈ 124 µM). The figure for `Cc1cnc(NC(=O)CC(C)c2ccccc2)s1` (configuration not stated) is 3 µg/mL (≈ 11.5 µM); for `Cc1cc(C)c(NC(=O)C2=COCCO2)c(C)c1` it is greater than 37.1 µg/mL.

`Cc1nn(CC(=O)NCc2cccc(F)c2)c(=O)c2cccn12`: the solubility (kinetic) was greater than 47.1 µg/mL. The figure for `O=C1c2cccc3cccc(c23)N1Cc1cccc(F)c1` is 2.6 µg/mL (≈ 9.38 µM); for `COc1ccc(NC(=O)CC2Oc3ccccc3NC2=O)c(OC)c1` (configuration not stated) it is 4 µg/mL (≈ 11.7 µM). For `COc1cc([N+](=O)[O-])cc([N+](=O)[O-])c1NC(=O)N1CCOCC1`, the solubility (kinetic) was greater than 48.9 µg/mL. To `O=C(OCc1ccccc1)N1CCc2ccccc21` belongs 0.9 µg/mL (≈ 3.55 µM); to `Cc1ccc(NC(=O)CC2(CC(=O)O)CCCC2)cc1`, greater than 41.3 µg/mL; to `CC(C)CCNc1nc2ccccc2nc1NS(=O)(=O)c1cccs1`, 7.3 µg/mL (≈ 19.4 µM). To `O=C(Cc1ccccc1)NCC(=O)Nc1ccccc1Br` belongs 51.4 µg/mL (≈ 148 µM); to `COC(=O)CCCSc1nccn1-c1ccccc1`, greater than 41.5 µg/mL; to `CNC(=O)c1ccc(Nc2nc(-c3ccccc3)nc3ccccc23)cc1`, 14.9 µg/mL (≈ 42 µM).

As for `O=[N+]([O-])c1cccc(C(O)C23CN4CN(CN(C4)C2)C3)c1` (configuration not stated), the solubility (kinetic) was greater than 43.5 µg/mL. To `O=C(CN1C(=O)NC2(CCCCC2)C1=O)Nc1ccc(N2CCCCC2)cc1` belongs 10.9 µg/mL (≈ 28.3 µM); to `CCN(CC)S(=O)(=O)c1ccc(NC(=S)Nc2ccccc2)cc1`, 13 µg/mL (≈ 35.8 µM). To `COc1ccc(NC(=O)CN(C)CC(=O)N2CCCCCC2)cc1` belongs 49 µg/mL (≈ 147 µM). To `O=C(NCC1CCCO1)c1cnn2c(C(F)F)cc(C3CC3)nc12` (configuration not stated) belongs greater than 50.5 µg/mL; to `CC(=O)c1c(Cl)nc2cccc3c2c1-c1ccccc1C3=O`, less than 0.7 µg/mL. On to `Cl.O=C(Nc1cccc(C(F)(F)F)c1)c1cccnc1NCCO`, for which the solubility (kinetic) was greater than 54.3 µg/mL.

`COc1ccc(CCN)cc1OC` showed a kinetic solubility of 24.8 µg/mL (≈ 137 µM). In turn, `Cc1ccc(NC(=O)CNC(=O)c2ccc3c(c2)OCO3)nc1` showed a solubility (kinetic) of 20.5 µg/mL (≈ 65.4 µM).

As for `O=C(CSc1ncnc2ccccc12)NCCc1ccccc1`, the kinetic solubility is greater than 48.5 µg/mL.

`Cc1ccnc(SCC(=O)NC2CCCCCC2)n1` had a kinetic solubility of 33 µg/mL (≈ 118 µM).

`COc1ccc(-c2cc(C(=O)NC3CCCC3)c3ccccc3n2)cc1` displayed a kinetic solubility of 4.7 µg/mL (≈ 13.6 µM). The figure for `CC(C)CNP(=S)(c1ccccc1)C(C)(C)C` (configuration not stated) is 1.7 µg/mL (≈ 6.31 µM); for `CCC(Sc1nc2ccccc2o1)C(=O)O` (configuration not stated) it is 35.2 µg/mL (≈ 148 µM); for `O=c1c(Cc2ccccc2)c(O)c2cccc3c4c(n1c23)CCCC4` it is 3.7 µg/mL (≈ 11.2 µM). To `COc1cccc2[nH]c(C(=O)NCCCN3CCCC3=O)cc12` belongs greater than 47.3 µg/mL. To `Cc1cccc(C)c1NC(=O)CN1C(=O)NC(C)(C2CC2)C1=O` (configuration not stated) belongs greater than 47.3 µg/mL; to `Nc1ccc(C(=O)O)c(O)c1`, greater than 23 µg/mL; to `CCCc1cc(=O)[nH]c(SCc2nc3ccccc3o2)n1`, greater than 45.2 µg/mL. With `O=C(Nc1ccc(Br)cc1)c1ccc2ncsc2c1`, the solubility (kinetic) stood at 7.9 µg/mL (≈ 23.7 µM). The figure for `CC(C)[N+]1=C2C=CC=CC=C2SC12C([N+](=O)[O-])=CC(=[N+]([O-])[O-])C=C2[N+](=O)[O-]` (configuration not stated) is 1.3 µg/mL (≈ 3.33 µM); for `C=CCNC(=O)C1CCN(c2cnccn2)CC1` it is greater than 36.9 µg/mL. To `O=C(Cc1ccc(F)cc1)N1CCN(c2ccc([N+](=O)[O-])cc2)CC1` belongs 3.5 µg/mL (≈ 10.2 µM). To `c1ccc2c(Nc3nc(-c4ccncc4)nc4ccccc34)cccc2c1` belongs less than 0.2 µg/mL; to `Cc1ccc(C(=O)OCC(=O)NC2CCCC2)cc1`, 22.5 µg/mL (≈ 86.1 µM); to `CC(NC(=O)CCNC(=O)c1ccc(C(C)(C)C)cc1)c1ccccc1` (configuration not stated), 17.1 µg/mL (≈ 48.5 µM).

The molecule `CCC(Sc1nc2ncnc(N)c2[nH]1)C(=O)O` (configuration not stated) registered a solubility (kinetic) of 34.1 µg/mL (≈ 135 µM). To `CCOC(=O)CCCNC(=O)COC(=O)c1cccc(F)c1` belongs 44.4 µg/mL (≈ 143 µM); to `Cc1ccc(-c2cnc3n2CCCCC3)cc1`, greater than 33.9 µg/mL; to `C/C(=N\NC(=O)C1CC1)c1ccc(C)c(C)c1`, greater than 34.5 µg/mL. The figure for `CCOc1ccc(C(=O)N2CCc3ccccc32)cc1` is 13.3 µg/mL (≈ 49.8 µM); for `Cn1c(C(=O)O)ccc1S(=O)(=O)N(Cc1ccccc1)Cc1ccccc1` it is greater than 57.7 µg/mL; for `O=C1COc2ccc(N3C(=O)c4ccccc4C3=O)cc2N1` it is 1.9 µg/mL (≈ 6.46 µM).

`O=C(NC(=S)N1CCCC1)c1ccc(Cl)cc1`: the kinetic solubility was determined as 35.4 µg/mL (≈ 132 µM). For the molecule `COc1cc(OC)c(OC)cc1CN1CCC(O)CC1.Cl`, the kinetic solubility was greater than 47.7 µg/mL. The figure for `CCc1nc2sccc2c(=O)[nH]1` is greater than 27 µg/mL.
